# In patent publication US20210163404A1, “NOVEL UREA COMPOUNDS AND BIOISOSTERES THEREOF AND THEIR USE FOR TREATING INFLAMMATION AND INFLAMMATION-RELATED PATHOLOGIES” (UNIVERSITÉ LAVAL, priority 2017, published 2021):
# Columns and labels:
# IL-6 = IL-6 expression in HaCaT cells stimulated with IL-17A and TNFα (ELISA); format: cell-based, human; conditions: for Expression of IL-6, HaCaT: 10 μM solutions, HaCaT stimulated with IL-17A and TNFα, mean of five experiments in duplicate
# Source text: The effect of compounds 3a-b, 4a-e, 5a-e and 6a-e on the expression of IL-6 was subsequently assessed using the HaCaT spontaneously transformed aneuploid immortal keratinocyte cell line, stimulated by the addition of IL-17A and TNFα in the culture medium (Table 1). Curcumin and ibuprofen were used as known IL-6 expression inhibitors. DMSO was used for solubilizing the drugs. […] Indeed, the inhibitory effect of these molecules was at least equivalent to that of curcumin [27] and ibuprofen, both recognized as anti-inflammatory drugs. The inhibitory effect of the substituted phenyl cycloalkylureas in accordance with an embodiment of the present disclosure on proinflammatory cytokines was also found at the mRNA level. Indeed, the mRNAs of the cytokines IL-6 and TNF-α as well as the mRNA of the chemokine IL-8 were lowered in TNF-α/IL-17A-stimulated HaCaT cells. Similar results were obtained in THP-1 cells stimulated with LPS where treatments with CHEU and 4e diminished the mRNA levels of the cytokines IL-1B, IL-6 and TNF-α in addition to the mRNA levels of the chemokine IL-8. It is surmised that the anti-inflammatory mechanism of action of the compounds of the present disclosure is likely mediated, at least in part, by modulating the phosphorylation state of the MAP kinase p38. […] Addition of a compound in accordance with an embodiment of the present disclosure, prior to stimulation with the aforementioned cytokines, decreases the level of p-p38 at 30-60 minutes post-stimulation. This diminution in p-p38 levels destabilizes the mRNAs of pro-inflammatory cytokines, non-limiting examples of which include TNF-α and IL-6. Moreover, it is surmised that the effect of the compounds of the present disclosure on p-p38 is potentially mediated by the activation of the phosphatase named DUSP1.
# HaCaT cells (1×10^5) were suspended in DMEM culture media (500 μL) and incubated for 24 h in 24-well microtiter plates at 37° C. in a moisture-saturated atmosphere containing 5% CO2. Compounds were solubilized in DMSO and diluted in fresh DMEM. The compound (500 μL) was then added to the cell medium to obtain a final concentration of […] and the cells incubated over a period of 1 hour. In the meantime, IL-17α (200 ng/mL) and TNFα (20 ng/mL) (PeproTech, Rocky Hill, N.J.) were added to the drug solution in DMEM. Following the initial incubation of the cells, the culture medium was aspirated from each well and the IL-17α+ TNFα+ compound solution was added to each well for incubation (6 hours). The culture media was then removed and transferred to a clean tube (1.5 mL) at −80° C. until the ELISA test was performed. The presence of IL-6 in the cell media was determined using an IL-6 human Duoset ELISA kit (Fisher Scientific, Ottawa, On.) according to the manufacturer's instructions. Standards and samples were prepared and assessed in duplicate. Two separate replicates were performed for each sample. The absorbance was measured at 450 nm and 540 nm using a TECAN infinite M1000 plate reader.
# [1] = tested on: HT-29 colon adenocarcinoma cells; experiment: Antiproliferative activity (NCI procedure, sulforhodamine B), HT-29; format: cell-based, human; conditions: Homo sapiens, HT-29, 48 h; for GI50: Table 2; for IC50: unit inferred, tested 781 nM to 100 μM
# Summary of the method: (§1)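 Cells seeded in DMEM, grown 24 h at 37 °C, then exposed 48 h to serial dilutions from 100 μM to 781 nM (DMSO <0.5%). TCA fixation, sulforhodamine B staining, absorbance at 530-568 nm; growth inhibition relative to plates fixed on treatment day. At least two experiments in triplicate.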
# [2] = tested on: HaCaT keratinocyte cell line; experiment: Antiproliferative activity (NCI procedure, sulforhodamine B), HaCaT; format: cell-based, human; conditions: Homo sapiens, HaCaT, 48 h; for GI50: Table 2; for IC50: unit inferred, tested 781 nM to 100 μM
# Summary of the method: as §1
# [3] = tested on: HDFn neonatal dermal fibroblast cell line; experiment: Antiproliferative activity (NCI procedure, sulforhodamine B), HDFn; format: cell-based, human; conditions: Homo sapiens, Fibroblast, 48 h; for GI50: Table 2; for IC50: unit inferred, tested 781 nM to 100 μM
# Summary of the method: as §1
# [4] = tested on: A549 adenocarcinoma alveolar epithelial cancer cells; experiment: Antiproliferative activity (NCI procedure, sulforhodamine B), A549; format: cell-based, human; conditions: Homo sapiens, A549, 48 h; for GI50: Table 2; for IC50: unit inferred, tested 781 nM to 100 μM
# Summary of the method: as §1
# HaCaT cells = experiment: Cell cycle analysis by flow cytometry; format: cell-based, human; conditions: for Cell cycle progression G0-G1 / Cell cycle progression G2-M / Cell cycle progression S: 10 μM, 24 h
# Experimental: The effect of compounds 3a-b, 4e, 5b-c, 6a and 6e on cell cycle progression was subsequently assessed using a flow cytometer in accordance with established experimental protocols to evaluate any potential drug toxicity at specific phases of the cell cycle (Table 3).
# HaCaT cells (2.5×10^5) were incubated with compounds 3a-b, 4e, 5b-c, 6a and 6e and curcumin (10 μM) over a period of 24 h. The cells were subsequently trypsinized, washed with PBS, resuspended in PBS (250 μL), fixed by the addition of ice-cold EtOH (750 μL) under agitation and stored at −20° C. until analysis. Prior to FACS analysis, cells were washed with PBS and resuspended in PBS (500 μL) containing 4′,6′-diamidino-2-phenylindole (DAPI) (2 μg/mL). The cell cycle was analyzed using an LSR II flow cytometer (BD Biosciences, Franklin Lakes, N.J.).
SMILES,"Expression of IL-6, HaCaT (IL-6) [pg/mL]",GI50 [1] [µM],IC50 ([1]; Table 6) [µM],GI50 [2] [µM],IC50 ([2]; Table 6) [µM],GI50 [3] [µM],IC50 ([3]; Table 6) [µM],GI50 [4] [µM],IC50 ([4]; Table 6) [µM],melting point [°C],further results
"O=C(NCC1CCC1)Nc1cccc(I)c1 [Compound 39, 1-(Cyclobutylmethyl)-3-(3-iodophenyl)urea]",90.2 ± 11.1,25,25,31,31,15,15,25,25,138 to 140,
"O=C(Nc1ccc(I)cc1)NC1CC1 [Compound 20, 1-Cyclopropyl-3-(4-iodophenyl)urea]",47.9 ± 4.5,82,82,> 100,≥ 100,95,95,> 100,≥ 100,,
"O=C(NCC1CCC1)Nc1ccc(C2CCCCC2)cc1 [Compound 57, 1-(Cyclobutylmethyl)-3-(4-cyclohexylphenyl)urea]",64.1 ± 5.4,> 100,≥ 100,> 100,≥ 100,> 100,≥ 100,> 100,≥ 100,172 to 173,"inhibitory effect on IL-6 expression in HaCaT cells (IL-6; 10 μM, stimulated with IL-17A and TNFα, in words): significant inhibitory effect"
"CC(C)(C)c1cccc(NC(=O)NC2CCCC2)c1 [Compound 48, 1-(3-(t-Butyl)phenyl)-3-cyclopentylurea]",74.6 ± 6.7,27,27,> 100,≥ 100,84,84,34,34,152 to 154,
"COc1cc(/C=C/C(=O)CC(=O)/C=C/c2ccc(O)c(OC)c2)ccc1O [Curcumin, reference compound]",62.8 ± 12.0,4.2,,7,,7.6,,9.9,,,Cell cycle progression G0-G1 (HaCaT cells): 14.8; Cell cycle progression G2-M (HaCaT cells): 77.1; Cell cycle progression S (HaCaT cells): 8.1; effect on cell cycle progression (HaCaT cells; in words): clearly arresting the cell cycle progression in the G2-M phase
"CC(C)(C)c1ccc(NC(=O)NCC2CCC2)cc1 [Compound 30, 1-(4-(t-Butyl)phenyl)-3-(cyclobutylmethyl)urea]",70.6 ± 7.6,21,21,35,35,8.2,8.2,> 100,≥ 100,179 to 184,
"CC(C)Cc1ccc(C(C)C(=O)O)cc1 (stereo not shown) [Ibuprofen, reference compound]",120.3 ± 18.6,> 100,,> 100,,> 100,,> 100,,,Cell cycle progression G0-G1 (HaCaT cells): 57.9; Cell cycle progression G2-M (HaCaT cells): 16.3; Cell cycle progression S (HaCaT cells): 25.6
"O=C(Nc1cccc(I)c1)NC1CCCC1 [Compound 40, 1-Cyclopentyl-3-(3-iodophenyl)urea]",89.8 ± 9.0,30,30,49,49,23,23,30,30,142 to 143,
CC(C)(C)c1cccc(NC(=O)NC2CC2)c1 [Compound 44],50.4 ± 2.6,> 100,≥ 100,> 100,≥ 100,> 100,≥ 100,> 100,≥ 100,169 to 171,
"O=C(Nc1cccc(I)c1)NC1CC1 [Compound 36, 1-Cyclopropyl-3-(3-iodophenyl)urea]",57.3 ± 4.4,> 100,≥ 100,> 100,≥ 100,79,79,84,84,153 to 154,
"O=C(Nc1ccc(I)cc1)NC1CCCC1 [Compound 24, 1-Cyclopentyl-3-(4-iodophenyl)urea]",65.1 ± 7.6,9.7,9.7,> 100,≥ 100,> 100,≥ 100,62,62,188 to 191,
"CC(C)(C)c1ccc(NC(=O)NC2CC2)cc1 [Compound 27, 1-(4-(t-Butyl)phenyl)-3-cyclopropylurea]",91.9 ± 7.6,85,85,> 100,≥ 100,55,55,> 100,≥ 100,138 to 139,
"CCNC(=O)Nc1ccc(C(C)(C)C)cc1 [tBEU, reference compound]",,,,,,,,,,,Cell cycle progression G0-G1 (HaCaT cells): 55.5; Cell cycle progression G2-M (HaCaT cells): 19.1; Cell cycle progression S (HaCaT cells): 25.3
S=C(Nc1ccc(I)cc1)NC1CCCC1 [Compound 102],,,,,,,,,,154 to 162,IC50 ([1]; Table 8): 25.1 µM; IC50 ([2]; Table 8): 39.1 µM; IC50 ([3]; Table 8): 18.6 µM; IC50 ([4]; Table 8): 25.3 µM
CC(C)(C)NC(=O)Nc1ccc(C(C)(C)C)cc1 [Compound 8],,,,,,,,,,167 to 174,IC50 ([1]; Table 5): 35.6 µM; IC50 ([2]; Table 5): 55 µM; IC50 ([3]; Table 5): 14.5 µM; IC50 ([4]; Table 5): 34.2 µM
